From article PMC11203957, “Naphthoquinone-Quinolone Hybrids with Antitumor Effects on Breast Cancer Cell Lines—From the Synthesis to 3D-Cell Culture Effects” (International Journal of Molecular Sciences, 2024)

How the values were obtained:
MCF-7 [1] = assay: Clonogenic assay, MCF-7; assay type: cell-based, human; settings: 25 µM, 24 h treatment, about 14 days growth
Description: (§1) The clonogenic assay is an effective tool for investigating individual cells’ ability to form colonies. Tumor cells with the ability to generate an expanding family of descendants are clonogenic. Therefore, a clonogenic assay is a simple method to verify one of the important characteristics of cancer cells, which is the ability to detach from the site of origin and to form metastases in other locations. […] For instance, 90–99% of the tumor cells in FaDU tumors, a type of human squamous cell carcinoma observed in nude mice, are non-clonogenic. To achieve the main goal of cancer treatment, which is tumor eradication, it is necessary to inactivate all clonogenic cells through either cell killing or the induction of a permanent state of dormancy, thereby eliminating their clonogenic capacity. The assessment of the potential of a drug to achieve a curative outcome, i.e., effectively neutralizing clonogenic tumor cells, requires the utilization of experimental endpoints that accurately reflect the response of clonogenic cells. Clonogenic endpoints hold particular significance when novel anticancer agents are incorporated into curative therapeutic regimens, such as in combination with radiotherapy or chemotherapy. Thus, clonogenic assays were conducted for compounds 11a–f and 1,4-naphthoquinone.
(§2) Figure 6 The inhibition of colony formation by compounds 11a–f using MCF-7 (A,C) and MDA-MB-231 (B,D) cell lines. Cells were treated with derivatives 11a–f at 25 µM for 24 h. Subsequently, 400 cells were plated on 6-well plates for approximately 14 days. Then, cells were stained with crystal violet dye to visualize the colonies formed.

MCF-7 cells [2] = assay: Annexin V/PI apoptosis assay, MCF-7; assay type: cell-based, human; settings: 50 µM
Protocol: (§3) We investigated apoptosis induction through the annexin V/PI protocol, as described in Section 3. Doxorubicin, 1,4-naphthoquinone, and cisplatin were used as controls. […] For MDA-MB-231 cells (Figure 5B), the effects observed were more prominent at the concentrations tested.
(§4) For the apoptosis assay, the manufacturer’s instructions were followed (Dead Cell Apoptosis Kit with Annexin V for Flow Cytometry, Thermo Fisher Scientific, MA, USA). The cells were analyzed in a Countess II FL cell counter (Thermo Fisher Scientific, Waltham, MA, USA).
(§5) Figure 5 Naphthoquinone-quinolone hybrids induce apoptosis in MCF-7 (A) and MDA-MB-231 (B) cells at different levels.

MCF-7 [3] = assay: MTT cell viability assay, MCF-7 (2D culture); assay type: cell-based, human; settings: for IC50: Homo sapiens, MCF7, MTT, 24 h treatment, 2D culture, read-out: IC50 ± SEM MCF-7; for SI IC50 MCF10A/IC50 MCF-7: selectivity index
Protocol: (§6) Our first approach to assessing the anticancer activity of the novel 1,4-naphthoquinone/4-quinolone conjugates 11a–f on breast cancer cells involved comparing their effects in the MTT cell viability assay to determine the half-maximal inhibitory concentration (IC50) in the 2D cell culture model. Doxorubicin and 1,4-naphthoquinone were used as controls. Concentration-response curves were obtained with the conjugates at concentrations ranging from 0 to 200 µM. […] This observation aligns with the structural characteristics of this derivative, which features the largest alkyl substituent at position R^1.
(§7) The IC50 values were calculated using GraphPad Prism v. 8.0.1, and the selectivity index was estimated as the ratio between the IC50 value of MCF10A/IC50 value of MDA-MB-231 or MCF-7 [33], for each compound.

MCF10A = assay: MTT cell viability assay, non-tumor MCF10A; settings: Homo sapiens, MCF-10A, 24 h, read-out: IC50 ± SEM MCF10A
MCF-7 cells [4] = assay: Reversibility assay (MTT viability), MCF-7; assay type: cell-based, human; settings: 25 µM; 24 h, 24 + 24 h, 48 h
Protocol: (§8) Our next issue concerned the reversibility of the effects: whether they persisted through a longer time of treatment, or if they ceased after the removal of the treatments. To investigate this, we used each compound at 25 µM and treated the MCF-7 and MDA-MB-231 cells for 24 h and 48 h. The 48-h treatment group was further subdivided into two different categories: the first was treated for 24 h, after which the culture medium was replaced with fresh medium without the compound, and then incubated for an additional 24-h period (24 + 24 h). In the second category, cells were continuously exposed to the compound for the entire 48-h duration, without any handling during this period. Cell viability was assessed as the evaluation parameter. The results are shown in Figure 7A (MCF-7) and Figure 7B (MDA-MB-231). […] In MCF-7 cells, the effect observed is similar, with a lower intensity of apoptosis induction.
(§9) Figure 7 Reversibility assay: investigating the effects of treatment durability on cell viability of (A) MCF-7 cells and (B) MDA-MB-231 cells. Cells were treated in three different manners: (1) for 24 h, continuously; (2) for 24 h, followed by removal of the treatment and addition of fresh medium, then further cultivation for 24 h; and (3) for a total period of 48 h. Cell viability was measured using the MTT assay. * p < 0.05, Student’s t-test, n = 3.

MDA-MB-231 cells [5] = assay: Clonogenic assay, MDA-MB-231; assay type: cell-based, human; settings: 25 µM, 24 h treatment, about 14 days growth
Description: as §1, §2

MDA-MB-231 cells [6] = assay: Reversibility assay (MTT viability), MDA-MB-231; assay type: cell-based, human; settings: 25 µM; 24 h, 24 + 24 h, 48 h
Protocol: as §8, §9

MDA-MB-231 = assay: MTT cell viability assay, MDA-MB-231 (2D culture); assay type: cell-based, human; settings: for IC50: Homo sapiens, MDA-MB-231, MTT, 24 h treatment, 2D culture, read-out: IC50 ± SEM MDA-MB-231; for SI IC50 MCF10A/ IC50 MDA-MB-231: selectivity index
Protocol: as §6, §7

MCF-7 spheroids = assay: 3D-cell culture (spheroids), morphology and acid phosphatase viability, MCF-7; assay type: cell-based, human; settings: 25 µM, 48 h
Description: 3D-cell cultures display features that resemble in vivo tumors: due to their tridimensional structure, cells are not provided with the same amounts of oxygen and nutrients in the center as on the surface, resulting in a gradient that leads to the formation of a necrotic core, similar to the in vivo tumor environment. In the 3D-cell culture model used here, spheroids are formed due to low interaction with the microplate bottom, promoted by its coating with agarose, and strong cell-to-cell interactions in MCF-7 cells, generating a finely compact and homogeneous spheroid. For MDA-MB-231 cells, the addition of collagen I is an extra stimulus necessary for spheroid stabilization. Spheroids were prepared and grown for 48 h and then treated with the compounds at 25 µM. After 48 h, morphological changes were observed, and their viabilities were measured as described in Section 3. The exposure to the compounds for 48 h promoted visible changes in the morphologies of spheroids for both cell lines when compared to the controls (Figure 8). […] While it is more complicated to imply changes in the proliferative (surface) region of the MDA-MB-231 spheroids (Figure 8B), they are observed together with morphological changes after treatment, making them appear more crumbly and lose their round shape. These findings are in line with the viability test, which detected a reduction in the viabilities for all of them, which is significant compared to the control (p < 0.05), except for 11a in MDA-MB-231 spheroids (Figure 8C,D). We should also highlight that the concentrations necessary for an effect on spheroids are expected to be higher when compared to 2D-cell culture models. Here, we observed changes using 25 µM of each compound, as performed in the other experiments.
The procedure was performed as described by Gong et al., with a few modifications. A total of 5000 cells per well were plated on 96-well plates with bottoms previously covered with 50 µL of a 1% agarose solution. The plates were then centrifuged at 300× g for 10 min. For MDA-MB-231 cells, collagen I from rat tail (Gibco) was added to a 3 µg/mL final concentration in the cell suspension. […] The cell spheroids/aggregates were treated with fresh medium added to the compounds and their viability was evaluated after 48 h. Spheroids were photographed with an inverted microscope Bel INV-100 (Bel Engineering, Monza, Italy) equipped with a digital camera.
To measure spheroids viability, this viability assay was performed following Friedrich et al.. The medium was removed from wells and spheroids were washed with PBS. Then, 100 µL of a solution containing 2 mg/mL p-nitrophenyl phosphate (PNPP), 0.1 M citric acid, and 0.1% (v/v) Triton X, pH 5.0 were added. […]

[7] = system: gastric cancer cells ACP03; design: method as in PMID 24858098; settings: cited from earlier work
topoisomerase II = system: topoisomerase II; design: method as in PMID 24858098; settings: in vitro and in silico studies; cited from earlier work
[8] = system: hepatocellular carcinoma (BEL7402); design: method as in PMID 22406451; settings: cited from earlier work
[9] = system: cervix adenocarcinoma (HeLa); design: method as in PMID 22406451; settings: cited from earlier work
MDA-MB-231 cells [10] = assay: Annexin V/PI apoptosis assay, MDA-MB-231; assay type: cell-based, human; settings: 50 µM
Protocol: as §3, §4, §5

| Structure (SMILES) | colony formation, MCF-7 (MCF-7 [1]) | early apoptosis induction (annexin V/PI), MCF-7 (MCF-7 cells [2]) | IC50 (MCF-7 [3]) [µM] | SI IC50 MCF10A/IC50 MCF-7 (MCF-7 [3]) | IC50 (MCF10A) [µM] | duration and reversibility of the effect on cell viability, MCF-7 (MCF-7 cells [4]) | colony formation, MDA-MB-231 (MDA-MB-231 cells [5]) | duration and reversibility of the effect on cell viability, MDA-MB-231 (MDA-MB-231 cells [6]) | IC50 (MDA-MB-231) [µM] | SI IC50 MCF10A/ IC50 MDA-MB-231 (MDA-MB-231) | spheroid morphology, MCF-7 (MCF-7 spheroids) | IC50 [7] [µM] | topoisomerase II activity inhibition (topoisomerase II) | IC50 [8] [µM] | IC50 [9] [µM] | apoptosis profile (annexin V/PI), MDA-MB-231 (MDA-MB-231 cells [10]) | melting point [°C] |
| --- | --- | --- | --- | --- | --- | --- | --- | --- | --- | --- | --- | --- | --- | --- | --- | --- | --- |
| O=C1C=CC(=O)c2ccccc21 [1,4-Naphthoquinone, 1,4-naphthoquinone, reference compound] | Significant reductions in colony formation | comparable | 29.5 ± 1 | 0.30 ± 0.13 | 8.78 ± 1.1 | irreversible effect | Significant reductions in colony formation | irreversible effect | 19.3 ± 1.1 | 0.46 ± 0.14 | changes in the morphology |  |  |  |  |  |  |
| Cc1ccc(NC(=O)c2c[nH]c3ccc(Cl)cc3c2=O)cc1 [Compound 2a] |  |  |  |  |  |  |  |  |  |  |  | 1.92 | able to inhibit topoisomerase II activity |  |  |  |  |
| O=C(Nc1cc(Cl)ccc1Cl)c1c[nH]c2ccc(Cl)cc2c1=O [Compound 2b] |  |  |  |  |  |  |  |  |  |  |  | 5.18 | able to inhibit topoisomerase II activity |  |  |  |  |
| CCCCCCCCC/C=C\CCCCc1cc(=O)c2ccccc2n1C [Compound 3] |  |  |  |  |  |  |  |  |  |  |  |  |  | 15.8 ± 1.4 | 18.5 ± 1.2 |  |  |
| CCOC(=O)c1cn(Cc2ccccc2)c2ccc(C3=CC(=O)c4ccccc4C3=O)cc2c1=O [Compound 11b, Ethyl 1-benzyl-6-(1,4-dioxo-1,4-dihydronaphthalen-2-yl)-4-oxo-1,4-dihydroquinoline-3-carboxylate] |  | comparable | 19.4 ± 1.1 | 0.55 ± 0.13 | 10.7 ± 1.3 |  |  |  | 15.1 ± 1 | 0.71 ± 0.14 |  |  |  |  |  |  |  |
| CCCCCn1cc(C(=O)OCC)c(=O)c2cc(C3=CC(=O)c4ccccc4C3=O)ccc21 [Compound 11c, Ethyl 6-(1,4-dioxo-1,4-dihydronaphthalen-2-yl)-4-oxo-1-pentyl-1,4-dihydroquinoline-3-carboxylate] | most effective |  | 32.8 ± 1.1 | 0.31 ± 0.11 | 10.2 ± 1.1 | short effect |  | not capable of sustaining the antitumor effect after 48 h of treatment | 16.4 ± 1.1 | 0.62 ± 0.12 |  |  |  |  |  | induces apoptosis |  |
| CCn1cc(C(=O)O)c(=O)c2cc(C3=CC(=O)c4ccccc4C3=O)ccc21 [Compound 11d, 6-(1,4-dioxo-1,4-dihydronaphthalen-2-yl)-1-ethyl-4-oxo-1,4-dihydroquinoline-3-carboxylic acid] |  |  | 25.1 ± 1.2 | 0.85 ± 0.07 | 21.5 ± 1.2 |  | most effective |  | 20.1 ± 1.1 | 1.07 ± 0.08 | changes in the morphology |  |  |  |  |  | > 300 |
| CCCCCn1cc(C(=O)O)c(=O)c2cc(C3=CC(=O)c4ccccc4C3=O)ccc21 [Compound 11f, 6-(1,4-dioxo-1,4-dihydronaphthalen-2-yl)-4-oxo-1-pentyl-1,4-dihydroquinoline-3-carboxylic acid] | most effective |  | 65.7 ± 1.1 | 0.11 ± 0.16 | 6.92 ± 1.1 |  |  |  | 24.1 ± 1.1 | 0.29 ± 0.16 |  |  |  |  |  |  | > 300 |
| COc1cccc2c1C(=O)c1c(O)c3c(c(O)c1C2=O)C[C@@](O)(C(=O)CO)C[C@@H]3O[C@H]1C[C@H](N)[C@H](O)[C@H](C)O1 [Doxorubicin, reference compound] |  | shows early apoptosis but also shows late apoptosis/necrosis in a great proportion | 14.2 ± 1.1 | 0.10 ± 0.09 | 1.49 ± 1.3 |  |  |  | 2.76 ± 1.2 | 0.54 ± 0.10 | changes in the morphology | 0.274 |  | 19.3 ± 1.2 | 21.1 ± 1.9 | effects similar to those seen on MCF-7 cells |  |
| N.N.[Cl][Pt][Cl] [cisplatin] |  | comparable |  |  |  |  |  |  |  |  |  |  |  |  |  | lower effect |  |
